# Tests used:
# [1] = test system: indomethacin-induced gastric ulceration in rats; test: Inhibition of indomethacin-induced gastric ulceration by prostaglandins, rats; format: in vivo, Sprague-Dawley strain male rats; conditions: for Inhibitory ratio (%): 5 hours; for ED50: Rattus norvegicus, po, 5 h, p.o., indomethacin 30 mg/kg i.p., read-out: ED50 (50% inhibition of the ulcer formation)
# Description: The method employed for the production and evaluation of indomethacin-induced ulcers was essentially same as described by Lee, Mollison and Cheng in Archives Internationales de Pharmacodynamie et de Therapie, vol. 191, page 370 - 377 and by Lippmann in Prostaglandins, vol. 7, page 1 - 10. Sprague-Dawley strain male rats weighing 200 - 220 g were fasted 20 hours with free access to water until the start of experiment. Indomethacin was suspended in 0.4% Tween 80 (surface active agent, product of Atlas Powder Co. U.S.A.) solution and given intraperitoneally into the rats at a dose of 30 mg/kg body weight. The test drugs were dissolved in physiological saline with aid of an ultrasonicator and administered perorally immidiately after the administration of indomethacin. The animals were killed 5 hours later and the ulcer formation in the glandular portion of the stomach was determined.
# [2] = test system: stress-induced ulceration in rats; test: Inhibition of the stress-induced ulceration by prostaglandins, rats; format: in vivo, Donryu strain male rats; conditions: for Inhibitory ratio (%): stress 8 hr at 23° C; for anti-stress ulcer potency relative to Compound C / anti-stress ulcer activity compared with PGE1 / anti-stress ulcer activity compared with PGE2: oral; for anti-stress ulcer potency relative to Compound C: versus Compound C; for anti-stress ulcer activity compared with PGE1: versus PGE1; for anti-stress ulcer activity compared with PGE2: versus PGE2
# Description: The method employed for the production and evaluation of stress ulcer was essentially same as described by Takagi and Okabe in Journal of Pharmacology vol. 18, pages 9-18 (Japan). Donryu strain male rats, 200 - 230 g in weight, were used. Animals were placed in the stress cage and immersed in a water bath kept at 23° C for 8 hr to the height of the xiphoid of the animal. At the end of the stress, the animals were killed by a blow, and stomach was removed, inflated with 10 ml of 1% formalin solution and placed into 1% formalin solution. Thereafter the stomach was cut along the greater curvature and examined for lesions macroscopically. The ulcer index was calculated as the sum of the length of each lesion in the stomach. Inhibitory ratio of ulceration was calculated for each dose. The test drugs were dissolved into 0.4% Tween 80 solution with aid of an ultrasonicator and administered orally (0.2 ml/100 g) immediately before the stress.
# [3] = test system: gastric secretion; conditions: German Patent Offenlegungsschrift 2,313,868; cited from earlier work
# [4] = cited from earlier work
# [5] = test system: intestinal tube; conditions: stated for prior prostaglandins; cited from earlier work
# [6] = diarrheal activity; format: in vivo; conditions: in words
# [7] = vasodepressor activity; format: in vivo; conditions: in words
# [8] = stated for prior prostaglandins; cited from earlier work
compound,measurement,setting,value
"CCCCC(C)(C)[C@H](O)/C=C/[C@H]1[C@H](C)CC(=O)[C@@H]1CCCCCCC(=O)O (relative stereo) [Compound A, 9-Oxo-11α,16,16-trimethyl-15α-hydroxyprost-13(trans)-enoic acid]",Inhibitory ratio (%),[1]; 0.25 mg/kg p.o.,63%
same,Inhibitory ratio (%),[1]; 0.50 mg/kg p.o.,71%
same,ED50,[1],0.16 mg/kg
same,Inhibitory ratio (%),[2]; 0.3 mg/kg p.o.,12%
same,Inhibitory ratio (%),[2]; 1.0 mg/kg p.o.,73%
same,anti-stress ulcer potency relative to Compound C,[2],more than 10 times
same,anti-stress ulcer activity compared with PGE1,[2],significantly more potent than that of PGE1
same,anti-stress ulcer activity compared with PGE2,[2],equally potent as or slightly more potent than that of PGE2
"CCCCC(C)(C)[C@H](O)/C=C/[C@H]1[C@H](C)CC(=O)[C@@H]1CCCCCCC(=O)OC (relative stereo) [Compound B, Methyl 9-oxo-11α,16,16-trimethyl-15α-hydroxyprost-13(trans)-enoate]",Inhibitory ratio (%),[1]; 0.25 mg/kg p.o.,49%
same,Inhibitory ratio (%),[1]; 0.50 mg/kg p.o.,67%
same,ED50,[1],0.26 mg/kg
same,Inhibitory ratio (%),[2]; 0.3 mg/kg p.o.,11%
same,Inhibitory ratio (%),[2]; 1.0 mg/kg p.o.,92%
same,anti-stress ulcer potency relative to Compound C,[2],more than 10 times
same,anti-stress ulcer activity compared with PGE1,[2],significantly more potent than that of PGE1
same,anti-stress ulcer activity compared with PGE2,[2],equally potent as or slightly more potent than that of PGE2
"CCCCC[C@H](O)/C=C/[C@H]1[C@H](C)CC(=O)[C@@H]1CCCCCCC(=O)O (relative stereo) [Compound C, 9-Oxo-11α-methyl-15α-hydroxyprost-13(trans)-enoic acid]",Inhibitory ratio (%),[1]; 1.25 mg/kg p.o.,52%
same,Inhibitory ratio (%),[1]; 2.5 mg/kg p.o.,68%
same,ED50,[1],1.18 mg/kg
same,Inhibitory ratio (%),[2]; 5.0 mg/kg p.o.,9%
same,Inhibitory ratio (%),[2]; 10 mg/kg p.o.,40%
"CCCCC[C@H](O)/C=C/[C@H]1[C@@H](C)CC(=O)[C@@H]1CCCCCCC(=O)O (relative stereo) [Compound D, 9-Oxo-11β-methyl-15α-hydroxyprost-13(trans)-enoic acid, reference compound]",Inhibitory ratio (%),[1]; 1.25 mg/kg p.o.,43%
same,Inhibitory ratio (%),[1]; 2.5 mg/kg p.o.,61%
same,ED50,[1],1.64 mg/kg
CCCCCC(O)/C=C/C1C(C)CC(=O)C1CCCCCCC(=O)O (stereo not drawn) [9-oxo-11β-methyl-15α(or β)-hydroxyprost-13(trans)-enoic acid],inhibition of gastric secretion,[3],inhibit gastric secretion
same,anti-ulcerogenic activity compared with prostaglandins E1 and E2,[4]; versus prostaglandins E1 and E2,extremely lower than that of prostaglandins E1 and E2
CCCCC[C@H](O)/C=C/[C@H]1[C@H](O)CC(=O)[C@@H]1CCCCCCC(=O)O [PGE1],intestinal tube-contracting activity,[5],potent hypotensive and intestinal tube-contracting activities
"CCCCC[C@H](O)/C=C/[C@H]1[C@H](O)CC(=O)[C@@H]1C/C=C\CCCC(=O)O [PGE2, reference compound]",Inhibitory ratio (%),[1]; 0.05 mg/kg p.o.,57%
same,Inhibitory ratio (%),[1]; 0.25 mg/kg p.o.,79%
same,potency relative to compound A in inhibition of the indomethacin-induced ulcer formation,[1]; PGE2 versus compound A,approximately 5 times
same,ED50,[1],0.03 mg/kg
same,Inhibitory ratio (%),[2]; 0.3 mg/kg p.o.,17%
same,Inhibitory ratio (%),[2]; 1.0 mg/kg p.o.,60%
same,diarrhea (side effect),[6],exhibits various side effects including diarrhea
same,vasodepressor activity,[7],vasode-pressor activity
same,hypotensive activity,[8],potent hypotensive
same,intestinal tube-contracting activity,[5],potent hypotensive and intestinal tube-contracting activities
same,anti-ulcerogenic effects,"[4]; U.S. Pat. No. 3,781,429, Prostaglandins 1974, 6, 523-532",anti-ulcerogenic effects

# From patent US3996263A, “9-Oxo-11α-methyl-15.EPSILON.-hyroxyprost-13(trans)-enoic acid derivatives and process for the preparaion thereof” (priority 1975, dated 1976)
